Source: ChEMBL document CHEMBL6177955, “Design, synthesis and biological evaluation of Golgi-targeting anion transporters as inducers of Golgiphagy and apoptosis in cancer cells” (Eur J Med Chem, 2025)
The source made the active and inactive calls. No cut-off for these calls is given here.

How the values were obtained:
Lipid bilayer [1] = assay: Vesicular anionophoric activity in large unilamellar vesicle membrane derived from egg-yolk L-alpha-phosphatidylcholine assessed as induction of relative efflux of chloride ions in presence of potassium (K+) measured up to 300 seconds by using chloride-selective electrode; settings: time <= 300.0 sec
Lipid bilayer [2] = assay: Vesicular anionophoric activity in large unilamellar vesicle membrane derived from egg-yolk L-alpha-phosphatidylcholine assessed as induction of relative efflux of chloride ions in presence of cesium (Cs+) measured up to 300 seconds by using chloride-selective electrode; settings: time <= 300.0 sec
Lipid bilayer [3] = assay: Vesicular anionophoric activity in Bulky nitrobenzene membrane assessed as induction of relative efflux of chloride ions measured up to 100 hrs by using chloride-selective electrode
A2780 = assay: Antiproliferative activity against human A2780 cells by MTT assay; type: functional, cell-based
MCF7 = assay: Antiproliferative activity against human MCF7 cells by MTT assay; type: functional, cell-based
HepG2 [4] = assay: Induction of chloride ion influx in human HepG2 cells assessed as effect on lysosomal chloride anions at 5 to 20 uM measured after 12 hrs incubation by chloride-sensitive dye MQAE-MP based CLSM imaging analysis; type: functional, cell-based; settings: dose 5-20 µM
HepG2 [5] = assay: Disruption of homeostasis of chloride anions in golgi apparatus of human HepG2 cells assessed as increase in fluorescence intensity of 6-methoxy-1-(2-oxo-2-((4-sulfamoylphenyl)amino)ethyl)quinolin-1-ium Bromide measured after 12 hts by CLSM imaging analysis; type: functional, cell-based
HepG2 [6] = assay: Cytotoxicity against human HepG2 cells assessed as cell viability at 1 to 20 uM measured after 24 hrs incubation in presence of chloride anions; type: functional, cell-based; settings: dose 1-20 µM
HepG2 [7] = assay: Suppression of Golgi structural and functional protein expression in human HepG2 cells assessed as decrease in GRASP55 protein expression at 5 to 20 uM measured after 48 hrs incubation by Western blot analysis; type: cell-based; settings: dose 5-20 µM
HepG2 [8] = assay: Effect on dysregulation mediated autophagy in human HepG2 cells assessed as increase in p62 marker expression at 5 to 20 uM measured after 48 hrs incubation by Western blot analysis; type: functional, cell-based; settings: dose 5-20 µM
HepG2 [9] = assay: Effect on dysregulation mediated autophagy in human HepG2 cells assessed as increase in LC3B marker expression at 5 to 20 uM measured after 48 hrs incubation by Western blot analysis; type: functional, cell-based; settings: dose 5-20 µM
HepG2 [10] = assay: Induction of autophagosome formation in human HepG2 cells assessed as green fluorescence in endoplasmic reticulum (ER) by measuring pearson co-localization at 10 uM measured after 12 hrs incubation by mCherry-LC3B assay; type: functional
HepG2 [11] = assay: Induction of apoptosis in human HepG2 cells assessed as late apoptotic cells at 5 uM measured after 24 hrs incubation by Propidium iodide/Annexin V-FITC analysis (reference value: 5.71%); type: functional
HepG2 [12] = assay: Induction of apoptosis in human HepG2 cells assessed as late apoptotic cells at 10 uM measured after 24 hrs incubation by Propidium iodide/Annexin V-FITC analysis (reference value: 5.71%); type: functional
HepG2 [13] = assay: Induction of apoptosis in human HepG2 cells assessed as viable cells at 20 uM measured after 24 hrs incubation by Propidium iodide/Annexin V-FITC analysis (reference value: 90.2%); type: functional; settings: read-out: Activity
HepG2 [14] = assay: Induction of apoptosis in human HepG2 cells assessed as necrotic cells at 20 uM measured after 24 hrs incubation by Propidium iodide/Annexin V-FITC analysis (reference value: 1.14%); type: functional
HepG2 [15] = assay: Cell cycle arrest in human HepG2 cells assessed as accumulation of cells at G2/M phase at 5 uM measured after 24 hrs incubation by flow cytometric analysis; type: functional
HepG2 [16] = assay: Antitumor activity against human HepG2 cells xenografted mouse model assessed as reduction in tumor weight at 5 to 10 mg/kg, ip administered once every 2 days for 21 days; type: functional, organism-based; settings: dose 5-10 mg/kg, time 21.0 day
HepG2 [17] = assay: Antitumor activity against human HepG2 cells xenografted mouse model assessed as reduction in tumor growth inhibition at 5 mg/kg, ip administered once every 2 days for 21 days relative to control; type: functional; settings: HepG2, 504 h, time 21 day, read-out: TGI
HepG2 [18] = assay: Antitumor activity against human HepG2 cells xenografted mouse model assessed as reduction GRASP55 expression in tumor tissue at 5 to 10 mg/kg, ip administered once every 2 days for 21 days; type: functional, organism-based; settings: dose 5-10 mg/kg, time 21.0 day
[19] = Toxicity in mouse xenografted with human HepG2 cells assessed as histopathological changes in kidney at 5 to 10 mg/kg, ip administered once every 2 days for 21 days by H and E staining based analysis; type: organism-based; settings: in vivo, 504 h, dose 5-10 mg/kg, time 21 day
[20] = Toxicity in mouse xenografted with human HepG2 cells assessed as alanine aminotransferase (ALT) in serum at 5 to 10 mg/kg, ip administered once every 2 days for 21 days; type: organism-based; settings: in vivo, 504 h, dose 5-10 mg/kg, time 21 day
[21] = Toxicity in mouse xenografted with human HepG2 cells assessed as blood urea nitrogen (BUN) at 5 to 10 mg/kg, ip administered once every 2 days for 21 days; type: organism-based; settings: in vivo, 504 h, dose 5-10 mg/kg, time 21 day
[22] = Toxicity in mouse xenografted with human HepG2 cells assessed as lactate dehydrogenase (LDH) at 5 to 10 mg/kg, ip administered once every 2 days for 21 days; type: organism-based; settings: in vivo, 504 h, dose 5-10 mg/kg, time 21 day
[23] = Toxicity in mouse xenografted with human HepG2 cells assessed as creatine kinase (CK) at 5 to 10 mg/kg, ip administered once every 2 days for 21 days; type: organism-based; settings: in vivo, 504 h, dose 5-10 mg/kg, time 21 day

## NS(=O)(=O)c1ccc(NC(=O)CCCCCNc2c(Nc3cc(C(F)(F)F)cc(C(F)(F)F)c3)c(=O)c2=O)cc1
Lipid bilayer [1]
  Activity: Active
Lipid bilayer [2]
  Activity: Active
Lipid bilayer [3]
  Activity: Active; Compound Exhibit Anion Transport Activity Most Probably Through Carrier Mechanism
A2780
  IC50: > 50 µM
MCF7
  IC50: 12.7 µM
HepG2 [4]
  Activity: inactive
HepG2 [5]
  EC50: 13.8 µM
HepG2 [6]
  Activity: Active; Cytotoxicity Enhanced In Presence Of Chloride Anions
HepG2 [7]
  Activity: Active
HepG2 [8]
  Activity: Active
HepG2 [9]
  Activity: Active
HepG2 [10]
  Activity: 0.13
HepG2 [11]
  Activity: 12.9%
HepG2 [12]
  Activity: 24.6%
HepG2 [13]
  viability at 20 µM: 22.1%
HepG2 [14]
  Activity: 7.19%
HepG2 [15]
  Activity: 6.95%
HepG2 [16]
  Activity: Active
HepG2 [17]
  inhibition in vivo at 5 mg/kg: 62%
HepG2 [18]
  Activity: Active
[19]
  Activity: Non-toxic
[20]
  Activity: Non-toxic
[21]
  Activity: Non-toxic
[22]
  Activity: Non-toxic
[23]
  Activity: Non-toxic
